These are literature values, as cited in patent publication US20040018954A1, “Composition of menthol and menthyl lactate, its preparation method and its applications as a cooling agent” (priority 2002, published 2004).

For this data set the following is noted: manufacturer's product literature.

In the case of `CC1CCC(C(C)C)C(OC(=O)C(C)O)C1` (centres unmarked) [Frescolat ML, menthyl lactate], the solubility result was “oil soluble” and the “stable in the pH range” value was 4-8.
